Consider 22 compounds from patent publication US20240376076A1, “INHIBITORS TARGETING UBIQUITIN SPECIFIC PROTEASE 7 (USP7)” (Dana-Farber Cancer Institute, Inc., priority 2021, published 2024).

The target in data set [1] is T1, USP7, Active human recombinant protein (Homo sapiens, UniProt Q93009).
T1 construct: purchased CP Lot; 20200225001
The experiment in a line: USP7 assay (Ubiquitin-Rhodamine 110 enzymatic assay). The data set is classed as biochemical. The conditions noted are these: read-out: IC50. A digest of the protocol: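 Human recombinant USP7 (0.05 nM final) preincubated with compound, 10-point 3-fold series, 15 min at RT. Reaction started with 190 nM ubiquitin-rhodamine 110. Fluorescence (ex 485/em 535 nm) read kinetically 20 min. Slopes normalized to enzyme+substrate and substrate-only controls; IC50 from curve fit.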

Data set [2] in a line: mouse liver microsomal stability (Microsome Assay Protocol). As to conditions: pH 7.4; mouse liver microsomes, NADPH, 37° C.; read-out: MLM t1/2, min. The data set is classed as in vitro ADME. The procedure: ND refers to not disclosed.
• 1. Buffer A: 1.0 L of 0.1 M monobasic Potassium Phosphate buffer containing 1.0 mM EDTA Buffer B: 1.0 L of 0.1 M Dibasic Potassium Phosphate buffer containing 1.0 mM EDTA • Buffer C: 0.1 M Potassium Phosphate buffer, 1.0 mM EDTA, pH 7.4 by titrating 700 mL of buffer B with buffer A while monitoring with a pH meter. • 2. Reference compound (Ketanserin) and test compounds spiking solution: • 500 μM spiking solution: added 10 μL of 10 mM DMSO stock solution into 190 μL ACN. • 1.5 μM spiking solution in microsomes (0.75 mg/mL): added 1.5 μL of 500 μM spiking solution and 18.75 μL of 20 mg/mL liver microsomes into 479.75 μL of Buffer C on ice. • 3. Prepared NADPH stock solution (6 mM) by dissolving NADPH into buffer C. Dispensed 30 μL of 1.5 μM spiking solution containing 0.75 mg/mL microsomes solution to the assay plates designated for different time points (0-, 5-, 15-, 30-, 45-min) on ice. For 0-min, added 135 μL of ACN containing IS to the wells of 0-min plate and then added 15 μL of NADPH stock solution (6 mM). Pre-incubated all other plates at 37° C. for 5 minutes. Added 15 μL of NADPH stock solution (6 mM) to the plates to start the reaction and timing. At 5-min, 15-min, 30-min, and 45-min, added 135 μL of ACN containing IS to the wells of corresponding plates, respectively, to stop the reaction. After quenching, shook the plates at the vibrator (IKA, MTS 2/4) for 10 min (600 rpm/min) and then centrifuged at 5594 g for 15 min (Thermo Multifuge×3R). Transferred 50 μL of the supernatant from each well into a 96-well sample plate containing 50 μL of ultra pure water (Millipore, ZMQS50F01) for LC/MS analysis.
Background: Liver microsomes are vesicles of endoplasmic reticulum, rich in cytochrome P450 enzymes.

T1 sequence (Q93009 whole entry): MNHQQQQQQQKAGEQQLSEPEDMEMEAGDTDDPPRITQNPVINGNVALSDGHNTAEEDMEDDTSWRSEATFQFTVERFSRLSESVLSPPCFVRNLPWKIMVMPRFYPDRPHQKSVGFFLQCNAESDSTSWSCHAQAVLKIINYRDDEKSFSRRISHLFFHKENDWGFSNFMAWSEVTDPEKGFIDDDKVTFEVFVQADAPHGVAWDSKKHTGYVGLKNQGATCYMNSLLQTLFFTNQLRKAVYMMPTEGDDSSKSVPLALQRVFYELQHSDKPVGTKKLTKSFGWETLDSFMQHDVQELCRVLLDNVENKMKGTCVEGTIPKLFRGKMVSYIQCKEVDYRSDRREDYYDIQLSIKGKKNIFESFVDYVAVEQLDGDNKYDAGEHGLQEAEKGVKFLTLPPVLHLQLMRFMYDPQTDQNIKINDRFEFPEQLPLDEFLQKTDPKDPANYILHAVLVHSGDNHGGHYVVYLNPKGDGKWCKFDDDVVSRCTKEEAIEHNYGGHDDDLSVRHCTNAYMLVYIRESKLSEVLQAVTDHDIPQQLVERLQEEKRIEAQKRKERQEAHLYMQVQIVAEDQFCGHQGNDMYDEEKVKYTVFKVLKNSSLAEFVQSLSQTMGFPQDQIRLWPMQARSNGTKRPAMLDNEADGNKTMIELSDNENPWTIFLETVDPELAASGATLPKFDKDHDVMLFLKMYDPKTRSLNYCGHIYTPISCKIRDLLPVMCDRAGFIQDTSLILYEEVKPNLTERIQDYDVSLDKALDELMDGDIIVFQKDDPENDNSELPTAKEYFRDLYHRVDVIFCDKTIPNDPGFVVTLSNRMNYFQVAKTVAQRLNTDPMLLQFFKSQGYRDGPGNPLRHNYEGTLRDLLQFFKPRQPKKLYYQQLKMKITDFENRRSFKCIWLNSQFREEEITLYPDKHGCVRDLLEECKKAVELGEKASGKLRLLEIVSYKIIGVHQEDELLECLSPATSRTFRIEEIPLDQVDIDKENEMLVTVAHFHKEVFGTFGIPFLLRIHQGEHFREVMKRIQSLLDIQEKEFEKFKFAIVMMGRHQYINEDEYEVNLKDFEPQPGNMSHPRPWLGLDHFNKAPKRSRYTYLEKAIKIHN

On to `CN(C)CCCOc1ccc2c(=O)n(CC3(O)CCN(C(=O)C(CCCNC(=O)c4ccc5c(Cl)c6c(nc5c4)CCN(C)C6=O)Cc4ccccc4)CC3)cnc2c1` (centres unmarked), for which, in data set [1], the 50% inhibitory concentration (IC50) lay within 0.02 to 0.1 µM. Moreover, the half-life at 1 µM in data set [2] came out at 14.4 min.
The like results for `CN(C)CCCOc1ccc2c(=O)n(CC3(O)CCN(C(=O)C(CCCNC(=O)c4ccc5c(Cl)c6c(nc5c4)CN(C)C6=O)Cc4ccccc4)CC3)cnc2c1` (centres unmarked) were, in that order, < 0.02 µM and 11.3 min.
Regarding `CN(C)CCCOc1ccc2c(=O)n(CC3(O)CCN(C(=O)C(CCCNC(=O)c4ccc5c(Cl)c6c(nc5c4)C(C)(C)NC6=O)Cc4ccccc4)CC3)cnc2c1` (centres unmarked), the IC50 in data set [1] is > 1 µM. Besides, the half-life at 1 µM in data set [2] stood at 16.3 min.
`CN(C)CCCOc1ccc2c(=O)n(CC3(O)CCN(C(=O)C(CCNC(=O)c4ccc5c(Cl)c(C(N)=O)cnc5c4)Cc4ccccc4)CC3)cnc2c1` (centres unmarked): the IC50 in data set [1] is < 0.02 µM. For the same compound, the half-life at 1 µM in data set [2] amounted to 28.2 min.
`CN(C)CCCOc1ccc2c(=O)n(CC3(O)CCN(C(=O)C(Cc4ccccc4)NCCNC(=O)c4ccc5c(Cl)c(C(N)=O)cnc5c4)CC3)cnc2c1` (centres unmarked): the IC50 in data set [1] was < 0.02 µM. For the same compound, the half-life at 1 µM in data set [2] came to 65.5 min.
The like results for `CN(C)CCCOc1ccc2c(=O)n(CC3(O)CCN(C(=O)C(Cc4ccccc4)N(C)CCNC(=O)c4ccc5c(Cl)c(C(N)=O)cnc5c4)CC3)cnc2c1` (centres unmarked) were, in that order, < 0.02 µM and 36.4 min.
For the compound `CN(C)CCCOc1cc2ncn(CC3(O)CCN(C(=O)[C@@H](CCCNC(=O)c4ccc5c(Cl)cc(C6CC6)nc5c4)Cc4ccccc4)CC3)c(=O)c2cc1F`, the IC50 in data set [1] was < 0.02 µM. For the same compound, the half-life at 1 µM in data set [2] came out at 22.1 min.
As for `CN(C)CCCNc1cc2ncn(CC3(O)CCN(C(=O)[C@@H](CCCNC(=O)c4ccc5c(Cl)cc(C6CC6)nc5c4)Cc4ccccc4)CC3)c(=O)c2cc1F`, the IC50 in data set [1] was < 0.02 µM. Besides, the half-life at 1 µM in data set [2] is 18.6 min.
The like results for `CN(C)CCCOc1ccc2c(=O)n(CC3(O)CCN(C(=O)C(Cn4ccc(F)n4)N(C)CCNC(=O)c4ccc5c(Cl)c(C(N)=O)cnc5c4)CC3)cnc2c1` (centres unmarked) were, in that order, 0.02 to 0.1 µM and 106 min.
Regarding `CN(C)CCCOc1ccc2c(=O)n(CC3(O)CCN(C(=O)C(CCCNC(=O)c4ccc5c(Cl)c(C(=O)NC6CC6)cnc5c4)Cn4ccc(F)n4)CC3)cnc2c1` (centres unmarked), in data set [1], the IC50 was < 0.02 µM. For the same compound, the half-life at 1 µM in data set [2] was 152 min.
Regarding `O=C(NCCCC(Cc1ccccc1)C(=O)N1CCC(O)(Cn2cnc3c(cnn3-c3ccc(F)cc3)c2=O)CC1)c1ccc2c(Cl)ccnc2c1` (centres unmarked) [Compound 6, N-(4-benzyl-5-(4-((1-(4-fluorophenyl)-4-oxo-1,4-dihydro-5H-pyrazolo[3,4-d]pyrimidin-5-yl)methyl)-4-hydroxypiperidin-1-yl)-5-oxopentyl)-4-chloroquinoline-7-carboxamide], the IC50 in data set [1] fell in the range of 0.02 to 0.1 µM. Besides, in data set [2], the half-life at 1 µM was found to be 1 min.
The like results for `Nc1ccc(-n2ncc3c(=O)n(CC4(O)CCN(C(=O)C(CCCNC(=O)c5ccc6c(Cl)ccnc6c5)Cc5ccccc5)CC4)cnc32)cc1` (centres unmarked) [Compound 7, N-(5-(4-((1-(4-aminophenyl)-4-oxo-1,4-dihydro-5H-pyrazolo[3,4-d]pyrimidin-5-yl)methyl)-4-hydroxypiperidin-1-yl)-4-benzyl-5-oxopentyl)-4-chloroquinoline-7-carboxamide] were, in that order, < 0.02 µM and 4.3 min.
The like results for `Cn1nc2c(=O)n(CC3(O)CCN(C(=O)C(CCCNC(=O)c4ccc5c(Cl)ccnc5c4)Cc4ccccc4)CC3)cnc2c1-c1cccc(C#N)c1` (centres unmarked) [Compound 10, N-(4-benzyl-5-(4-((3-(3-cyanophenyl)-2-methyl-7-oxo-2,7-dihydro-6H-pyrazolo[4,3-d]pyrimidin-6-yl)methyl)-4-hydroxypiperidin-1-yl)-5-oxopentyl)-4-chloroquinoline-7-carboxamide] were, in that order, 0.02 to 0.1 µM and 1.5 min.
The like results for `O=C(NCCCC(Cc1ccccc1)C(=O)N1CCC(O)(Cn2cnc(NCCN3CCCC3)cc2=O)CC1)c1ccc2c(Cl)ccnc2c1` (centres unmarked) [Compound 11, N-(4-benzyl-5-(4-hydroxy-4-((6-oxo-4-(2-(pyrrolidin-1-yl)ethylamino)pyrimidin-1(6H)-yl)methyl)piperidin-1-yl)-5-oxopentyl)-4-chloroquinoline-7-carboxamide] were, in that order, 0.02 to 0.1 µM and 12.1 min.
Turning to `CN1CCN(CCC(=O)Nc2ccc3c(=O)n(CC4(O)CCN(C(=O)C(CCCNC(=O)c5ccc6c(Cl)cc(-c7cnn(CC(F)(F)F)c7)nc6c5)Cc5ccccc5)CC4)cnc3c2)CC1` (centres unmarked) [Compound 18, N-(4-benzyl-5-(4-hydroxy-4-((7-(3-(4-methylpiperazin-1-yl)propanamido)-4-oxoquinazolin-3(4H)-yl)methyl)piperidin-1-yl)-5-oxopentyl)-4-chloro-2-(1-(2,2,2-trifluoroethyl)-1H-pyrazol-4-yl)quinoline-7-carboxamide], the IC50 in data set [1] lay in the range of 0.02 to 0.1 µM. Also, the half-life at 1 µM in data set [2] is 21.2 min.
As for `CN1CCN(CCC(=O)Nc2ccc3c(=O)n(CC4(O)CCN(C(=O)C(CCCNC(=O)c5ccc6c(Cl)cc(C7(F)CC7)nc6c5)Cc5ccccc5)CC4)cnc3c2)CC1` (centres unmarked) [Compound 21, N-(4-benzyl-5-(4-hydroxy-4-((7-(3-(4-methylpiperazin-1-yl)propanamido)-4-oxoquinazolin-3(4H)-yl)methyl)piperidin-1-yl)-5-oxopentyl)-4-chloro-2-(1-fluorocyclopropyl)quinoline-7-carboxamide], the half-maximal inhibitory concentration (IC50) in data set [1] is > 1 µM. The half-life at 1 µM in data set [2] stood at 18.5 min.
With `CN1CCN(CCn2cc3ncn(CC4(O)CCN(C(=O)C(CCCNC(=O)c5ccc6c(Cl)ccnc6c5)Cc5ccccc5)CC4)c(=O)c3n2)CC1` (centres unmarked) [Compound 27], the IC50 in data set [1] is > 1 µM. For the same compound, the half-life at 1 µM in data set [2] came out at 20 min.
The like results for `CN1CCN(CC(=O)Nc2ccc3c(=O)n(CC4(O)CCN(C(=O)C(CCCNC(=O)c5ccc6c(Cl)ccnc6c5)Cc5ccccc5)CC4)cnc3c2)CC1` (centres unmarked) [Compound 29, N-(4-benzyl-5-(4-hydroxy-4-((7-(2-(4-methylpiperazin-1-yl)acetamido)-4-oxoquinazolin-3(4H)-yl)methyl)piperidin-1-yl)-5-oxopentyl)-4-chloroquinoline-7-carboxamide] were, in that order, 0.02 to 0.1 µM and 16.7 min.
With `CN(C)CC(=O)Nc1ccc2c(=O)n(CC3(O)CCN(C(=O)C(CCCNC(=O)c4ccc5c(Cl)c6c(nc5c4)CN(C)C6)Cc4ccccc4)CC3)cnc2c1` (centres unmarked) [Compound 31, N-(4-benzyl-5-(4-((7-(2-(dimethylamino)acetamido)-4-oxoquinazolin-3(4H)-yl)methyl)-4-hydroxypiperidin-1-yl)-5-oxopentyl)-9-chloro-2-methyl-2,3-dihydro-1H-pyrrolo[3,4-b]quinoline-6-carboxamide], the IC50 in data set [1] lay within 0.1 to 1 µM. The half-life at 1 µM in data set [2] amounted to 2.9 min.
The like results for `CN(C)CC(=O)Nc1ccc2c(=O)n(CC3(O)CCN(C(=O)C(CCCNC(=O)c4ccc5c(Cl)c6c(nc5c4)CCN(C)C6)Cc4ccccc4)CC3)cnc2c1` (centres unmarked) [Compound 32, N-(4-benzyl-5-(4-((7-(2-(dimethylamino)acetamido)-4-oxoquinazolin-3(4H)-yl)methyl)-4-hydroxypiperidin-1-yl)-5-oxopentyl)-10-chloro-2-methyl-1,2,3,4-tetrahydrobenzo[b][1,6]naphthyridine-7-carboxamide] were, in that order, 0.02 to 0.1 µM and 2.5 min.
The like results for `CC(=O)N1CCc2nc3cc(C(=O)NCCCC(Cc4ccccc4)C(=O)N4CCC(O)(Cn5cnc6cc(NC(=O)CN(C)C)ccc6c5=O)CC4)ccc3c(Cl)c2C1` (centres unmarked) [Compound 33, 2-acetyl-N-(4-benzyl-5-(4-((7-(2-(dimethylamino)acetamido)-4-oxoquinazolin-3(4H)-yl)methyl)-4-hydroxypiperidin-1-yl)-5-oxopentyl)-10-chloro-1,2,3,4-tetrahydrobenzo[b][1,6]naphthyridine-7-carboxamide] were, in that order, < 0.02 µM and 2.1 min.
In the case of `CN(C)CCC(=O)Nc1ccc2c(=O)n(CC3(O)CCN(C(=O)C(CCCNC(=O)c4ccc5c(Cl)c6c(nc5c4)CN(C)CC6)Cc4ccccc4)CC3)cnc2c1` (centres unmarked) [Compound 40, N-(4-benzyl-5-(4-((7-(3-(dimethylamino)propanamido)-4-oxoquinazolin-3(4H)-yl)methyl)-4-hydroxypiperidin-1-yl)-5-oxopentyl)-5-chloro-2-methyl-1,2,3,4-tetrahydrobenzo[b][1,7]naphthyridine-8-carboxamide], the IC50 in data set [1] was 0.02 to 0.1 µM. The half-life at 1 µM in data set [2] stood at 7.4 min.

By IC50 is commonly meant the midpoint of a concentration-inhibition curve.
